Measured values reported in publication PMC5655428, “Discovery and pharmacological characterization of a new class of prolyl-tRNA synthetase inhibitor for anti-fibrosis therapy” (PLoS ONE, 2017).

Columns and labels:
human PRS = biological target: T1, human PRS (Homo sapiens, UniProt P07814); experiment: ATP/PPi exchange assay (PRS enzymatic inhibition); type: biochemical; conditions: ATP/PPi exchange method; duplicate
T1 construct: His-Avi-tag (N); made in house; host or cells: E. coli BL21 (DE3)
T1 sequence (P07814 998-1512): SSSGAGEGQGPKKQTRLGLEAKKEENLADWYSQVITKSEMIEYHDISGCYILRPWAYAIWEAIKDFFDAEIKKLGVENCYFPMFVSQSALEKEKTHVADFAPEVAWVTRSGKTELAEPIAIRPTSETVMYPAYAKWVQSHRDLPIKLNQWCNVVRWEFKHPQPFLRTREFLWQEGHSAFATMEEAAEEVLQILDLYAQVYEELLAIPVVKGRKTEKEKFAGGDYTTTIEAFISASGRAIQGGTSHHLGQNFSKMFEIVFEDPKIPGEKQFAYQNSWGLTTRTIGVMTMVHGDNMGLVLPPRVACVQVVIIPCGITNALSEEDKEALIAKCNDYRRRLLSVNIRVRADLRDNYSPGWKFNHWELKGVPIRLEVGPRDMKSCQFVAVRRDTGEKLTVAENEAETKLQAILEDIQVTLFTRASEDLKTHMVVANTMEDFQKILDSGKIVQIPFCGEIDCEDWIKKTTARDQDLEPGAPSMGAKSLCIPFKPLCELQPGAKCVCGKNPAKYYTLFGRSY
Experimental: The expression plasmid of human PRS (residues 998–1512, Genbank Accession No. NM_152621) was constructed in a pET21a vector (Novagen, San Diego, CA, USA) to express in E.coli BL21 (DE3) (Nippongene, Tokyo, Japan) as a fusion protein with His-Avi-tag at N-terminus. After culture, the cells were homogenized in a lysis buffer containing 50 mM Tris-HCl (pH 8.0 at 25°C), 150 mM NaCl, 5 U/mL Benzonase, 20 mM imidazole, and 1 mM DTT. Cell homogenates were centrifuged, and the supernatant was applied to NiNTA purification, followed by gel filtration with Superdex200. Proteins were stored in a buffer containing 50 mM Tris-HCl (pH 8.0 at 25°C), 150 mM NaCl, 10% glycerol, and 1 mM DTT at -80°C. The protein concentration was determined with the BCA Protein Assay Kit (Pierce Biotechnology, Inc., Rockford, IL, USA) according to the instruction manual.
The test compounds were dissolved in 5 μL of an assay buffer [50 mM Tris-HCl (pH 7.5), 20 mM KCl, 1 mM DTT, and 0.01% Tween 20] and incubated with 5 μL of 40 nM PRS enzyme dissolved in the assay buffer supplemented with 40 mM MgCl2 for 60 minutes. […] Radioactivities were measured using the TopCount detector (PerkinElmer).
The inhibitory activity was calculated as follows: % inhibition = (A—B) / (A—C) × 100, where, A, B, and C are signals with vehicle, test sample, and without reaction, respectively. […]

skin fibroblasts = experiment: Proline addition assay (α-SMA mRNA); type: cell-based, human; conditions: proline 0.05, 0.2 and 1 mM; compound 1-300 nM; 24 h
Experimental: Total RNA was isolated from in vivo samples using ISOGEN II (Nippongene) according to the manufacturer's instructions. In vitro RNA samples were prepared as mentioned above. High Capacity cDNA Reverse Transcription Kit (Life Technologies, Carlsbad, CA, USA) was used for cDNA synthesis. Real-time quantitative RT-PCR reactions were performed as a TaqMan method on a ViiA 7 real-Time PCR System (Life Technologies), using TaqMan Fast Advanced Master Mix (Lifer Technologies) with specific primers on TaqMan Gene Expression Assays (Life Technologies) according to the manufacturer's manual. […] The relative mRNA level of the target genes was calculated by the comparative threshold cycle (Ct) method using GAPDH (Gapdh) as an internal control for normalization. The fold change in the expression of each target gene was calculated by the following formula: relative quantification (RQ) = 2^-ΔΔCt.
To evaluate the effect of proline addition on anti-fibrosis by each compound, the cells were allowed to adhere overnight before being replaced with serum-free FBM for 24 h. […] Then real-time quantitative RT-PCR analysis was conducted as mentioned above.

[1] = tested on: differentiated human skin myofibroblast; experiment: reverse fibrosis: α-SMA protein in TGF-β-induced differentiated skin myofibroblasts (Protocol 2); type: cell-based; conditions: TGF-β 1 ng/mL 48 h, then compound 48 h without TGF-β
Experimental: Protocol 2: Cells were allowed to adhere overnight before being replaced with serum-free FBM for 24 h. Cells were then treated with TGF-β (1 ng/mL) for 48 h to induce differentiation to myofibroblast with expressing α-SMA protein. The medium was then removed, and the cells were subsequently treated with or without samples (1–300 nM) in serum-free FBM for an additional 48 h. Cell lysates were prepared with cell lysis buffer (Cell Signaling Technology, Beverly, MA, USA) and subjected to α-SMA ELISA system (Abnova, Taipei, Taiwan) and Pro-type I Collagen α1 (pro-COL1A1) SimpleStep ELISA Kit (Abcam, Cambridge, UK, USA) according to the manufacturer's protocol.

Structure (SMILES) | IC50 (human PRS) [nM] | effect of proline addition on inhibition of α-SMA gene expression (skin fibroblasts) | concentration promoting the reduction of α-SMA protein in differentiated myofibroblasts [1] [nM] | concentration reducing α-SMA levels to that of non-stimulated controls [1] [nM]
O=C(CC1NCCCC1O)Cn1cnc2cc(Br)c(Cl)cc2c1=O (centres unmarked) [HF, Halofuginone, reference compound] | 8.7 | attenuated by adding proline to the medium | 100 | 300
Cn1cc(-c2cc(F)cc(CNC(=O)c3nccc4nc(C5CCCC5)[nH]c34)c2)cn1 [T-3833261, 2-Cyclopentyl-N-(3-fluoro-5-(1-methyl-1H-pyrazol-4-yl)benzyl)-3H-imidazo[4,5-c]pyridine-4-carboxamide] | 3.6 | proline addition did not affect the activity | 100 | 300
